The values below come from paper PMC12136037, “Type II kinase inhibitors that target Parkinson’s disease–associated LRRK2” (Science Advances, 2025).

What all share (assay): DSF 100 kinase selectivity screen;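 further: compound tested at 20 µM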
Common to all, as to format: binding

In experiment [1] the target is T1, ~100 representative kinases (Homo sapiens, UniProt O94768).
T1 construct: Recombinant protein kinase domains with a concentration of 2 μM
T1 sequence (O94768 1-372): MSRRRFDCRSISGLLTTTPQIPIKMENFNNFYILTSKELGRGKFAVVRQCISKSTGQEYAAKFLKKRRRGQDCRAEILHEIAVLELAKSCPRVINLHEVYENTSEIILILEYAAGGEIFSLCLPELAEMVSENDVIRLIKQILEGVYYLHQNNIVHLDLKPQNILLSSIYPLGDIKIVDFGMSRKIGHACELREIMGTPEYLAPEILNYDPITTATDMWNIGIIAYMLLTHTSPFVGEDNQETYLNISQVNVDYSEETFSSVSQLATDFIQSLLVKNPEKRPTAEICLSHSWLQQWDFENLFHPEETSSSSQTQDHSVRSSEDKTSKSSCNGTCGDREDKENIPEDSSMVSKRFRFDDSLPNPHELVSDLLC
The following applies: Protein STK17B; DSF; average of three replicates. Summed up: (§1)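 Each kinase domain, at 2 μM, is mixed with 20 μM test compound and SYPRO Orange in Hepes (20 mM, pH 7.5) with 500 mM NaCl. Temperature is then raised at 3°C/min and fluorescence-monitored unfolding yields the melting temperature change, ΔTm in degrees Celsius.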

The target in experiment [2] is T2, ~100 representative kinases (Homo sapiens, UniProt O96017).
T2 construct: Recombinant protein kinase domains with a concentration of 2 μM
The following applies: Protein CHEK2; average of three replicates. Summed up: as §1

Experiment [3] concerns the target T3, ~100 representative kinases (Homo sapiens, UniProt Q86V86).
T3 construct: Recombinant protein kinase domains with a concentration of 2 μM
The following applies: protein PIM3; average of three replicates. Summed up:
as §1

The target of experiment [4] is T4, ~100 representative kinases (Homo sapiens, UniProt Q13043).
T4 construct: Recombinant protein kinase domains with a concentration of 2 μM
T4 sequence (Q13043 1-487): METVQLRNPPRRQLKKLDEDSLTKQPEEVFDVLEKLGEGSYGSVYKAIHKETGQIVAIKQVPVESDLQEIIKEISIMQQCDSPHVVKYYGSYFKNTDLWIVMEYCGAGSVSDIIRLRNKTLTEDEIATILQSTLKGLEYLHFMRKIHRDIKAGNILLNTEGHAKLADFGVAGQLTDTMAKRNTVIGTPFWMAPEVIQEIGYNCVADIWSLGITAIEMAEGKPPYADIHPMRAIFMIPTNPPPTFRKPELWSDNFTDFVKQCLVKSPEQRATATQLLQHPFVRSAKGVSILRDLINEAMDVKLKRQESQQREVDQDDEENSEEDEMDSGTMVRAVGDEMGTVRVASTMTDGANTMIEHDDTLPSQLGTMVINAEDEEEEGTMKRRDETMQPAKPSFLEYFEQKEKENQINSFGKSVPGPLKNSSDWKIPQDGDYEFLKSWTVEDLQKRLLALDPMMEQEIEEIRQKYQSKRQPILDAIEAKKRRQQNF
The following applies: Protein STK4; DSF; average of three replicates. Summed up: as §1

The target in experiment [5] is T5, ~100 representative kinases (Homo sapiens, UniProt Q14680).
T5 construct: Recombinant protein kinase domains with a concentration of 2 μM
T5 sequence (Q14680 whole entry, the tested form may be a part): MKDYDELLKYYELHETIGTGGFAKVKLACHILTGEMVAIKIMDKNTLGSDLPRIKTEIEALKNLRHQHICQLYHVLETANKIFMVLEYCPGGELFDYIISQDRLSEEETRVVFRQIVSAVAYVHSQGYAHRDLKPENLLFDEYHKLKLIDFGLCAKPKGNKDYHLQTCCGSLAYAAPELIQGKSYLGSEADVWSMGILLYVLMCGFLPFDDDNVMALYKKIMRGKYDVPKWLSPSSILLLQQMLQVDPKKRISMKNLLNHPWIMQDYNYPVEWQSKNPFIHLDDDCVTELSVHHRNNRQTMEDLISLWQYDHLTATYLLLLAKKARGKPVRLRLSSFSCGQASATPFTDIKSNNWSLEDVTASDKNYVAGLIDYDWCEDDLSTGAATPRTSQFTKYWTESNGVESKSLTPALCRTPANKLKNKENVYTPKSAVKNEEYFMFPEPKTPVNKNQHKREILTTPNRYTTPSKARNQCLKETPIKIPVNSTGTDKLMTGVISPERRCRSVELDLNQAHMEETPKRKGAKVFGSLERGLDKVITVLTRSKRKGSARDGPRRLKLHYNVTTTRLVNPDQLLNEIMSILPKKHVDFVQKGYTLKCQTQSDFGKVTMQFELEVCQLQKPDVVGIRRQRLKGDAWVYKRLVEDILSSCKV
The following applies: protein MELK; average of three replicates. In a few lines:
as §1

Experiment [6] has as its target T6, ~100 representative kinases (Homo sapiens, UniProt Q8TF76).
T6 construct: Recombinant protein kinase domains with a concentration of 2 μM
T6 sequence (Q8TF76 1-798): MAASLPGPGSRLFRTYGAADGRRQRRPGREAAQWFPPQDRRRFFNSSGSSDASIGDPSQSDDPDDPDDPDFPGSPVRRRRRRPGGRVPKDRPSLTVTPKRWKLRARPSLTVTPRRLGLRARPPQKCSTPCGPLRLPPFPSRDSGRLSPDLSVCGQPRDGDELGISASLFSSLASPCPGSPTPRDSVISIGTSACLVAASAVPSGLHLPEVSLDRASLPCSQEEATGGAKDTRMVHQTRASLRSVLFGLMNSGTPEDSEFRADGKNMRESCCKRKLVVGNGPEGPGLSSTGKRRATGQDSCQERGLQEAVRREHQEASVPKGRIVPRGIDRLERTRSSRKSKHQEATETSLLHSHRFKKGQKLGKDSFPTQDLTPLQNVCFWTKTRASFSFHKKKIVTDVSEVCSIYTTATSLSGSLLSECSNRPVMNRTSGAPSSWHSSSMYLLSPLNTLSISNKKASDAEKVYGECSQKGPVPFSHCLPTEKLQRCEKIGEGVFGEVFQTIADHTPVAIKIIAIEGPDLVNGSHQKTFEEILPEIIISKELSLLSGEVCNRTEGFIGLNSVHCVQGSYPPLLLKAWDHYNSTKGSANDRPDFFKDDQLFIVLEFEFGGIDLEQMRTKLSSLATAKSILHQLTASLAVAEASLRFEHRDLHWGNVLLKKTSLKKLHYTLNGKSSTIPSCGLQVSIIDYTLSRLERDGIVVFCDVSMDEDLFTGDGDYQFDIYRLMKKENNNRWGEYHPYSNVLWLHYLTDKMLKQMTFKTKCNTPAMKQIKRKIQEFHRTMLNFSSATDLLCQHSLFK
The following applies: protein GSG2; average of three replicates. In a few lines: as §1

Experiment [7] deals with T7, ~100 representative kinases (Homo sapiens, UniProt O94804).
T7 construct: Recombinant protein kinase domains with a concentration of 2 μM
T7 sequence (O94804 whole entry, the tested form may be a part): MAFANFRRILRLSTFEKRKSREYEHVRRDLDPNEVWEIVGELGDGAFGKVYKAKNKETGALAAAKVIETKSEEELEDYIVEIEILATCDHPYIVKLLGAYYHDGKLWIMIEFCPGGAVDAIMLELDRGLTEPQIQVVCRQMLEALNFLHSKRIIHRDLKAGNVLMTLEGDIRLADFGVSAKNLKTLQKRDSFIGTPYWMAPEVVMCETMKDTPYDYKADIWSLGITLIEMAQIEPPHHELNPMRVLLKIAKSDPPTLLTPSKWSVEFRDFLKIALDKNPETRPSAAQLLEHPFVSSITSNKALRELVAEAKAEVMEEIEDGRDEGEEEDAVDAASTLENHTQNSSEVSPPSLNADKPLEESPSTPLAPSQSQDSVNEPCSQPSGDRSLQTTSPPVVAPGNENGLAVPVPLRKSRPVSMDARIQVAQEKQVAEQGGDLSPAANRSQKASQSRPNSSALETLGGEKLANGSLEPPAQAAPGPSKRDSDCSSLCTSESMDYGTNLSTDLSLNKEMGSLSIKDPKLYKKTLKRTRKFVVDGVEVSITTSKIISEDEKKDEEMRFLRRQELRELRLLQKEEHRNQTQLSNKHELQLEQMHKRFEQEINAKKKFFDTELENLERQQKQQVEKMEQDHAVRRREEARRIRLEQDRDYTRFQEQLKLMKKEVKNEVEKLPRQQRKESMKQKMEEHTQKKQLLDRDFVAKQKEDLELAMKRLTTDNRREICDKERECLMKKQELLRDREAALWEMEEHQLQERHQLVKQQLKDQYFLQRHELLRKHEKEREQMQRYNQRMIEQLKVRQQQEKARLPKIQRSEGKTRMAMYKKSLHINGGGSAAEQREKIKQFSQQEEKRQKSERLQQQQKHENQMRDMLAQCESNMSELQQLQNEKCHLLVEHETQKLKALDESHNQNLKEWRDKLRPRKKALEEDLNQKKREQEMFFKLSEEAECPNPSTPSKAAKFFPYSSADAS
The following applies: Protein STK10; DSF; average of three replicates. In a few lines:
as §1

Experiment [8] concerns the target T8, ~100 representative kinases (Homo sapiens, UniProt P45984).
T8 construct: Recombinant protein kinase domains with a concentration of 2 μM
The following applies: protein MAPK9; average of three replicates. Summed up:
as §1

The target in experiment [9] is T9, ~100 representative kinases (Homo sapiens, UniProt O43293).
T9 construct: Recombinant protein kinase domains with a concentration of 2 μM
The following applies: Protein DAPK3; average of three replicates. In a few lines:
as §1

Experiment [10] addresses T10, ~100 representative kinases (Homo sapiens, UniProt P19784).
T10 construct: Recombinant protein kinase domains with a concentration of 2 μM
The following applies: Protein CK2A2; average of three replicates. In a few lines: as §1

In experiment [11] the target is T11, ~100 representative kinases (Homo sapiens, UniProt Q13557).
T11 construct: Recombinant protein kinase domains with a concentration of 2 μM
The following applies: Protein CAMK2D; average of three replicates. Summed up:
as §1

In experiment [12] the target is T12, ~100 representative kinases (Homo sapiens, UniProt O15075).
T12 construct: Recombinant protein kinase domains with a concentration of 2 μM
The following applies: Protein DCAMKL1; average of three replicates. Summed up: as §1

The target in experiment [13] is T13, ~100 representative kinases (Homo sapiens, UniProt Q15418).
T13 construct: Recombinant protein kinase domains with a concentration of 2 μM
T13 sequence (Q15418 whole entry, the tested form may be a part): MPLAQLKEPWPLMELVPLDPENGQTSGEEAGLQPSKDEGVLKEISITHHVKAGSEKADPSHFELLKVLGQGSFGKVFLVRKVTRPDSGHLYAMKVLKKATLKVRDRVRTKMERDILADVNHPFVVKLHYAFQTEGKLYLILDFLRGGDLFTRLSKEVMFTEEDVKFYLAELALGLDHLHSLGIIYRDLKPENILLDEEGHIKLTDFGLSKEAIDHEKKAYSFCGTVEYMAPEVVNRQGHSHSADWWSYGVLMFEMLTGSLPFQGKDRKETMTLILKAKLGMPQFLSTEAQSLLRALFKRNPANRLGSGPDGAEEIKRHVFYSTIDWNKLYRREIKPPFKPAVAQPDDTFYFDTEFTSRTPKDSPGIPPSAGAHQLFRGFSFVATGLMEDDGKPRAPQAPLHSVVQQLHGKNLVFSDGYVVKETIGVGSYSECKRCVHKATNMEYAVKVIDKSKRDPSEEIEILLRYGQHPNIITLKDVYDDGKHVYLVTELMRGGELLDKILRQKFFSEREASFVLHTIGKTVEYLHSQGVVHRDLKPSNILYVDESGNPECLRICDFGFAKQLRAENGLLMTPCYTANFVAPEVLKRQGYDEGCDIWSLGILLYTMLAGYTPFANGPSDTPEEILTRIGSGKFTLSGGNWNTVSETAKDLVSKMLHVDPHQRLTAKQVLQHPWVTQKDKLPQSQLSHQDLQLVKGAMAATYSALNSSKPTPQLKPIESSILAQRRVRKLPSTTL
The following applies: Protein RPS6KA1; DSF; average of three replicates. In a few lines:
as §1

For experiment [14], the target named is T14, ~100 representative kinases (Homo sapiens, UniProt Q2M2I8).
T14 construct: Recombinant protein kinase domains with a concentration of 2 μM
T14 sequence (Q2M2I8 whole entry, the tested form may be a part): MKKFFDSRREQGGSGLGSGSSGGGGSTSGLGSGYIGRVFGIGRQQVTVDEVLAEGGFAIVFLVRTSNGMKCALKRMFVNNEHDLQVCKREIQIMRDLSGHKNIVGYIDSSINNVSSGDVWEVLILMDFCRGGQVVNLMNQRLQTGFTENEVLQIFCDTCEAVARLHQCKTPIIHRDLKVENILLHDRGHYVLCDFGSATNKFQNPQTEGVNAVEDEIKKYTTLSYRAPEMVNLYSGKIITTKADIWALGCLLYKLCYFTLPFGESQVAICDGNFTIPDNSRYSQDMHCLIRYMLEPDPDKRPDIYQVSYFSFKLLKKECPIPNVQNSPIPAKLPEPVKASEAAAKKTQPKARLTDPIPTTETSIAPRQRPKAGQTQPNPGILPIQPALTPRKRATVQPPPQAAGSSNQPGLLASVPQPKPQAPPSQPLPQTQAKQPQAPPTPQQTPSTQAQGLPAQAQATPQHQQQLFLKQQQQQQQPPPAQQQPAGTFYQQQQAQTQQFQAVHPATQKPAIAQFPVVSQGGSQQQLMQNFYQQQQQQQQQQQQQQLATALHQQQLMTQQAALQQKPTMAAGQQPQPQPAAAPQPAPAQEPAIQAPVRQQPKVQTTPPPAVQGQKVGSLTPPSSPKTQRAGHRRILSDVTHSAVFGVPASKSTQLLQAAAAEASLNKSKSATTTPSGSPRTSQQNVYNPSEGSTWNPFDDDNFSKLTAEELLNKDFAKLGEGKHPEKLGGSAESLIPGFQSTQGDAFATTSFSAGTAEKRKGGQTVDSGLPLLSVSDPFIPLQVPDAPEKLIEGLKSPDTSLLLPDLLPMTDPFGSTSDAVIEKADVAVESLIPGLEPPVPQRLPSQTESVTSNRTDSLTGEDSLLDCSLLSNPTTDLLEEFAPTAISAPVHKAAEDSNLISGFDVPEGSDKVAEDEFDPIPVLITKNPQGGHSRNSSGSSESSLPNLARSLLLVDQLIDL
The following applies: Protein AAK1; average of three replicates. In a few lines:
as §1

Experiment [15] deals with T15, ~100 representative kinases (Homo sapiens, UniProt P53779).
T15 construct: Recombinant protein kinase domains with a concentration of 2 μM
T15 sequence (P53779 whole entry, the tested form may be a part): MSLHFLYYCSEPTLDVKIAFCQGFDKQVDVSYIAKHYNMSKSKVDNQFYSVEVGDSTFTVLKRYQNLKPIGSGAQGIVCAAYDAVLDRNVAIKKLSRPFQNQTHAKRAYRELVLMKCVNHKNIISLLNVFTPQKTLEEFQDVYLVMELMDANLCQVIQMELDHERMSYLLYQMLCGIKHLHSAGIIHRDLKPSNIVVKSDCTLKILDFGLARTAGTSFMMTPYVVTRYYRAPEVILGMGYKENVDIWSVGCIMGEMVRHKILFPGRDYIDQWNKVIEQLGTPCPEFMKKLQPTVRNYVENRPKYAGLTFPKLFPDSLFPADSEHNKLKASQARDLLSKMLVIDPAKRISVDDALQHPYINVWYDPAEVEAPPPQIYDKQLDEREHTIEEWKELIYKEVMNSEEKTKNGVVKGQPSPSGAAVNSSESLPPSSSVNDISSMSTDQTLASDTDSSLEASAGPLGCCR
The following applies: protein MAPK10; average of three replicates. In a few lines: as §1

T8 sequence (P45984 whole entry, the tested form may be a part): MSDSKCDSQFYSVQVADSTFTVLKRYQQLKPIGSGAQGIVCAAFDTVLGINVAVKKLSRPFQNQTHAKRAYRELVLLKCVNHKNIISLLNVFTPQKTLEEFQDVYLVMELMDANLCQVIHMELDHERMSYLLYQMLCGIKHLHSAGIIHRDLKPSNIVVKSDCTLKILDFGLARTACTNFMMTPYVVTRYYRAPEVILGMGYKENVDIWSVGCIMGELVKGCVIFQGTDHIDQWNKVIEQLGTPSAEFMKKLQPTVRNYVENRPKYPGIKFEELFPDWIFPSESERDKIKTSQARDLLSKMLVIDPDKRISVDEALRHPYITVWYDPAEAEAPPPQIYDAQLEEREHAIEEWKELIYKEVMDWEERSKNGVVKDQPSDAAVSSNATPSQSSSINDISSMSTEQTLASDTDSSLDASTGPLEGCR
T10 sequence (P19784 whole entry, the tested form may be a part): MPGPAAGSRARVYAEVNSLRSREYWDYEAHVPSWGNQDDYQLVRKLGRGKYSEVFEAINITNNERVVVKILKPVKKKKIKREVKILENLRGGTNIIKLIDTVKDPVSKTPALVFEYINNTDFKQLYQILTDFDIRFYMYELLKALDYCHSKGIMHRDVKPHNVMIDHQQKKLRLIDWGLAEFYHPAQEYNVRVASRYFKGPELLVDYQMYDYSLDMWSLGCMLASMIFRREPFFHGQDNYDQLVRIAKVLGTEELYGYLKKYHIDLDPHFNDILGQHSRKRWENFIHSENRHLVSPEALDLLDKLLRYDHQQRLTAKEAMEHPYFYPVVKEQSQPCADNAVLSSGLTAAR

For `CC(=O)N1CCN(c2nc(Cl)nc3[nH]cc(-c4cccc(NC(=O)Nc5cc(C(C)(C)C)nn5-c5ccc(C)cc5)c4)c23)CC1` [Compound 31], the dTm is 2.85 K in experiment [1]; 5.59 K in experiment [2]; 0.67 K in experiment [3]; 4.59 K in [4]; 2.26 K in experiment [5]; -3.39 K in [6]. The dTm in experiment [7] is on record as 13.28 K; in [8], 5.47 K; in experiment [9] it was 6.63 K; in [10] it was -3.51 K; in experiment [11], -0.29 K; in experiment [12] it was 2.11 K. For the same compound, the dTm is recorded as -0.67 K in experiment [13], 0.59 K in [14] and 0.82 K in experiment [15].

Take `CCSc1nc(NC)c2c(-c3cccc(NC(=O)Nc4cc(C(C)(C)C)nn4-c4ccc(C)cc4)c3)c[nH]c2n1` [Compound 32]: the dTm in [1] came out at 6.20 K; in experiment [2] it was 3.19 K; in [3], 2.14 K; in [4] it was 0.80 K; in experiment [5], 1.19 K; in experiment [6], 0.63 K. In addition, the dTm is reported as 8.61 K in experiment [7]; 11.55 K in experiment [8]; 1.05 K in experiment [9]; -0.62 K in experiment [10]; 0.32 K in [11]; 0.67 K in [12]. Moreover, the dTm in experiment [13] was found to be 0.43 K; in [14], 0.08 K; in experiment [15] it was 3.75 K.

As to `COc1cc(C(=O)N2CCOCC2)c(F)cc1Nc1nc(N(C)C)c2c(Cl)c[nH]c2n1` [Compound 36], the dTm in experiment [1] is 10.98 K; in experiment [2], 13.85 K; in experiment [3], -0.33 K; in experiment [4], -1.57 K; in experiment [5] it was 1.11 K; in experiment [6], -1.75 K. In addition, the dTm in experiment [7] is reported as -1.96 K; in experiment [8] it was 2.71 K; in [9], 6.29 K; in experiment [10] it was 1.00 K; in experiment [11], 3.01 K; in experiment [12], 2.05 K. The dTm is 1.99 K in experiment [13], 2.52 K in [14] and 5.50 K in [15].

As to `COc1cc(S(C)(=O)=O)ccc1Nc1nc(N(C)C)c2c(Cl)c[nH]c2n1` [Compound 37], the dTm is listed as 9.71 K in [1]; 7.39 K in [2]; 0.48 K in [3]; -0.52 K in [4]; 0.45 K in experiment [5]; 0.32 K in experiment [6]. For the same compound, the dTm is -1.61 K in experiment [7]; 0.96 K in [8]; 3.62 K in [9]; 1.16 K in experiment [10]; 0.41 K in experiment [11]; -0.34 K in experiment [12]. Further, the values for the dTm in experiment [13], in experiment [14] and in [15] were 0.36 K, 0.85 K and 2.71 K, respectively.

Take `COc1cc2c(Oc3ccc(NC(=O)C4(C(=O)Nc5ccc(F)cc5)CC4)cc3F)ccnc2cc1OCCCN1CCOCC1` [Foretinib, reference compound]: the dTm is recorded as 3.63 K in experiment [1]; 18.83 K in experiment [2]; -0.88 K in experiment [3]; 8.95 K in [4]; 7.59 K in [5]; 1.08 K in experiment [6]. The dTm in experiment [7] was 16.81 K; in experiment [8], 2.84 K; in experiment [9], 5.00 K; in experiment [10], 0.00 K; in experiment [11] it was 0.34 K; in [12], 0.55 K. For the same compound, the dTm in experiment [13] is listed as -0.88 K; in experiment [14] it was 0.82 K; in [15], 1.66 K.

With `CCNc1nc(Nc2cc(F)c(C(=O)N3CCOCC3)cc2OC)ncc1C(F)(F)F` [GNE-7915], the dTm is 1.02 K in experiment [1]; 0.72 K in [2]; 0.92 K in experiment [3]; 0.31 K in experiment [4]; 2.44 K in experiment [5]; -0.09 K in experiment [6]. The dTm in experiment [7] is listed as -0.11 K; in experiment [8], 0.58 K; in [9], 1.72 K; in [10], 2.65 K; in experiment [11] it was -0.06 K; in experiment [12], 2.14 K. For the same compound, the dTm in experiment [13] is 0.64 K; in experiment [14], 4.61 K; in experiment [15], 0.33 K.

In the case of `C[C@@H]1CN(c2cc(-c3n[nH]c4ccc(OC5(C)CC5)cc34)ncn2)C[C@H](C)O1` [MLi2], the dTm is on record as 0.38 K in [1]; 3.06 K in experiment [2]; 0.23 K in experiment [3]; -0.67 K in experiment [4]; 0.47 K in [5]; 0.08 K in [6]. For the same compound, the dTm in [7] was -0.79 K; in experiment [8], 0.30 K; in experiment [9] it was 1.94 K; in experiment [10], -0.31 K; in experiment [11], 1.10 K; in experiment [12] it was 0.51 K. Moreover, the dTm in experiment [13] is 2.98 K; in experiment [14], 1.29 K; in [15], 0.0276 K.
